Test results: patent publication US8022086B2, “Therapeutic agent for glomerular disease” (Kowa Co., Ltd., priority 2004, dated 2011)

Test system: rat model of glomerular basement membrane (GBM) nephritis
Experiment: Pharmacological test employing rat model of glomerular basement membrane (GBM) nephritis: urinary total protein excretion
Format: in vivo, Wistar male rats
Conditions: anti-GBM antibody-induced nephritis rats, repeated oral administration for two weeks; for 18-hour urinary total protein excretion: pitavastatin calcium 30 mg/kg, candesartan cilexetil 3 mg/kg, control group 316, N=7; for 18-hour urinary total protein excretion compared with control group (significance): versus no drug administration group
Experimental: Wistar male rats (six weeks old, purchased from Japan Laboratory Animals, Inc.) were quarantined and acclimatized for four days, and employed for the test. Firstly, a rat GBM rabbit IgG antibody was prepared, and then an antibody solution was adjusted with saline upon use to be 31 mg IgG antibody/mL saline. Thereafter, each of the rats was fixated under unanesthetized conditions, and the antibody solution was intravenously administered (1 mL/kg) through the tail vein, whereby progressive renal disorder was induced. The resultant rats were divided into four groups (N=7 for each), and immediately thereafter, the below-described test was carried out. […] In the drug administration groups, the respective drugs were repeatedly orally administered for two weeks. In each of the groups, after completion of two-week drug administration, urine was collected from each rat for 18 hours in a metabolic cage (Product of […] Co., Ltd.), and urinary total protein excretion was measured.

SMILES	18-hour urinary total protein excretion	18-hour urinary total protein excretion compared with control group (significance)
CCOc1nc2cccc(C(=O)OC(C)OC(=O)OC3CCCCC3)c2n1Cc1ccc(-c2ccccc2-c2nnn[nH]2)cc1 (stereo not shown) [candesartan cilexetil, 1-(cyclohexyloxycarbonyloxy)ethyl 2-ethoxy-1-[[2′-(1H-tetrazol-5-yl)biphenyl-4-yl]methyl]-1H-benzimidazole-7-carboxylate]	92 mg/18 h/kg	lower, but not significantly lower
O=C(O)C[C@H](O)C[C@H](O)/C=C/c1c(C2CC2)nc2ccccc2c1-c1ccc(F)cc1 [pitavastatin calcium, (3R, 5S, 6B)-7-[2-cyclopropyl-4-(4-fluorophenyl)-3-quinolyl]-3,5-dihydroxy-6-heptenoic acid]	138 mg/18 h/kg	lower, but not significantly lower
